{"source": "patent US20170340648A1", "about": "“Pharmaceutical Compositions Affecting Bioenergetic Processes in a Eukaryotic Biological System and Methods of Treatment” (JOYCE BIOTECH CORP., priority 2016, published 2017)", "key": {"glucocorticoid receptors": {"test_system": "glucocorticoid receptors", "conditions": "cultured cells; cited from earlier work"}, "C2C12 murine myoblasts": {"test_system": "C2C12 murine myoblasts", "format": "cell-based", "protocol": "In the experiment, immortalized murine C2C12 myoblast cells were exposed to various pre-assay growth conditions prior to being seeded into a Seahorse XF24 Extracellular Flux Analyzer cell culture plate. The basal oxygen consumption (OCR) and extracellular acidification (ECAR) rates were measured to establish baseline metabolic rates for each experimental culture condition. The cells were then metabolically perturbed by the successive addition of three different compounds that shift the bioenergetic profile of the cell.\nThe first compound added following the collection of baseline metabolic data was oligomycin.\nThe second agent injected, carbonyl cyanide-p-trifluoromethoxyphenylhydrazone (FCCP), is an ionophore that is a mobile ion carrier.\nRotenone, a Complex I inhibitor, is the third agent injected in sequence, it prevents the transfer of electrons from the Fe—S center in Complex I to ubiquinone (Coenzyme Q).\nRotenone exposure inhibits mitochondrial respiration and enables both the mitochondrial and non-mitochondrial fractions contributing to respiration to be calculated.\nStatistical analysis was conducted via two-tailed Mann-Whitney U test of variance. U and P values were calculated using algorithms supplied by the Meta Numerics and ALGLIB statistical libraries. During calculations, when the value of N (the number of scores) was equal to or greater than 10, it was assumed that the sampling distribution was approximately normal, and a Z-ratio was also employed to calculate the value of P. The threshold for significance was set at P≦to 0.05 (Table 27A1 to Table 27F2).\nC2C12 murine myoblast cells were placed into pre-assay growth condition categories and cultured for 24 hours.\nCSC12 murine myoblast cells were seeded into a Seahorse XF24 24 well culture plate at a density of 10,000 cells/well in 100 microliters of Growth Medium.\nThe seeded XF24 culture plates were placed into a 37 degree Centigrade incubator at 10% CO2 for 24 hours. […]"}, "[1]": {"conditions": "rat, in vivo; cited from earlier work"}}, "note": "Entries after “also recorded” stand apart in the source; their conditions may differ.", "data": [{"molecule": "CC(=O)N1CCN(c2ccc(OCC3COC(Cn4ccnc4)(c4ccc(Cl)cc4Cl)O3)cc2)CC1", "note": "(stereo not shown) [ketoconazole]", "values": [{"measurement": "glucocorticoid receptor activity", "setting": "glucocorticoid receptors", "value": "antagonist"}]}, {"molecule": "C=C(C)[C@H]1Cc2c(ccc3c2O[C@@H]2COc4cc(OC)c(OC)cc4[C@@H]2C3=O)O1", "note": "[Rotenone]", "values": [{"measurement": "oxygen consumption rate (OCR) relative to Control condition", "setting": "C2C12 murine myoblasts; 24 h pre-assay incubation for compositions, Rotenone 2.0 μM injected, basal and FCCP conditions", "value": "significantly reduced; also recorded: decreased"}, {"measurement": "anaerobic metabolic activity as indicated by extracellular acidification rate (ECAR) relative to untreated control", "setting": "C2C12 murine myoblasts; basal, Met/Mife 25 uM/50 uM (Table 27A1), MET/KET 1 mM/50 uM (Table 27F3), Rotenone 2.0 μM", "value": "increased"}]}, {"molecule": "O=CC[C@@H](O)[C@H](O)[C@H](O)CO", "note": "[2-Deoxy-d-Glucose]", "values": [{"measurement": "cardiac toxicity", "setting": "[1]", "value": "cardiotoxicity"}]}]}
